Test results taken from article PMC13534789, “Molecular Glue Degraders Enhance CAPRIN1‐Dependent Lysosomal Degradation of APP and Reduce Amyloid β in Alzheimer's Disease” (Advanced Science, 2026).

Assays:
[1] = target: T1, 3R‐APP695‐HiBiT (Homo sapiens, UniProt P05067, K724R/K725R/K726R); assay: HiBiT luminescence and Aβ42 ELISA in 3R-APP695-HiBiT HEK cells; type: cell-based; conditions: KKK motif K649–K651 replaced by arginines, 72 h
T1 construct: expressed in transfected cells
From the text: To validate this interaction, we co‐expressed the C‐terminal domain of APP (HiBiT‐tagged C99) and the N‐terminus of FLAG‐tagged CAPRIN1 (residues 1–250) in HEK cells. Flag IP followed by western blotting confirmed the interaction between CAPRIN1 and APP (Figure 4H). To further delineate the interaction interface, we focused on a lysine‐rich (KKK) motif (K649–K651) within APP as a potential CAPRIN1‐interacting region, given its location within the cytosolic domain of C99 and its enrichment in basic residues that may mediate protein–protein interactions. To assess the functional relevance of this interaction in compound activity, we generated an APP695‐3R mutant, replacing the KKK motif (K649‐K651) with arginines by site‐directed mutagenesis. […] To further assess the role of this motif in APP‐CAPRIN1 interaction, we performed co‐immunoprecipitation experiments comparing WT‐ and 3R‐APP695‐HiBiT.
HEK293 cells were purchased from the American Type Culture Collection (ATCC). Lentiviral plasmids (pLV‐Hygro‐CMV‐hAPP, pLV‐Hygro‐CMV‐hAPP‐Hibit, and pLV‐Hygro‐CMV‐hAPP ‐3K to 3R‐Hibit) for APP695WT HEK293 and APP695‐Hibit HEK293 were generated in the third‐generation plasmid. […] Once expanded, clones were analyzed by ELISA for amyloid beta 42 (Aβ42), western blot for APP expression, and Hibit‐lytic assay (Promega). […]

[2] = Brain/plasma ratio in mice; type: in vivo, male C57BL/6 mice; conditions: male, C57BL/6, brain, 10 mg/kg; mouse, PO, 10 mpk; read-out: B/P-Kp (brain-to-plasma partition coefficient)
Procedure: Brain/Plasma Ratio test was processed by Sai Life Sciences Pvt. Ltd. Briefly, twelve male C57BL/6 mice were administered orally with solution formulation of 0152 at 10 mg/kg dose. Blood samples (approximately 60 µL) were collected under light isoflurane anesthesia from a set of three mice at 0.25, 0.5, 1, and 2 h. The blood samples were collected at each time point in labelled micro centrifuge tube containing K2EDTA as anticoagulant. Plasma was harvested by centrifugation of blood and stored at ‐70±10°C until analysis. Immediately after collecting blood, animals were anesthetized, perfused using 10 mL phosphate buffer saline, and brain samples were collected from each mouse at respective time points. Brain samples were homogenized using ice‐cold phosphate buffer saline (pH 7.4), and homogenates were stored below ‐70±10°C until analysis. Total homogenate volume was three times the brain weight. The plasma and brain concentration‐time data of 0152 were used for calculation. Plasma and brain samples were quantified by fit‐for‐purpose LC‐MS/MS method.

[3] = target: T2, CAPRIN1 and APP (Homo sapiens, UniProt P05067+Q14444); assay: Streptavidin pull-down with biotinylated 0152 in AG27606-N lysates; type: binding
T2 construct: endogenous in cells; host or cells: AG27606-Ns, sAD2.3-Ns (iPSC-derived neurons) and their lysates

[4] = system: rhCAPRIN1 and rhAPP; assay: ThermoFluor assay with recombinant proteins; type: binding, human; conditions: proteins 5 µM
Procedure: For the Thermofluor assay, Huynh's protocol was used with minor modifications. In brief, all proteins were used at a final concentration of 5 µM for this assay, and GloMelt Thermal Shift Protein Stability Kit (Biotium) was used at a final concentration of 0.5X. All experiments were carried out with QuantStudio 6 Flex (Applied Biosystems). SYBR was used as a reporter, and ROX was used as a passive reference according to the manufacturer's directions. Melting curve data were exported, followed by analysis with Boltzmann's sigmoidal curve in GraphPad Prism.

[5] = system: LN229 and HCT116 cells; assay: Cancer cell viability; type: cell-based, human
[6] = system: CAPRIN1, G3BP1, BACE1, ADAM10, PSEN1, nicastrin, GGA1, Sorla, neprilysin; assay: Western blot of CAPRIN1, G3BP1 and other AD-related proteins; type: cell-based, human; conditions: 10 µM
[7] = system: HEK‐APP695WT cells; assay: CellTiter-Glo cell viability, HEK cells; type: cell-based, human; conditions: 10 µM, 72 h

Compound	Response of 3R-APP695-HiBiT cells (HiBiT luminescence, Aβ42 ELISA) [1]	Kp [2]	Competition of the 0152-biotin pull-down by excess free compound [3]	Thermal shift of recombinant CAPRIN1 and APP [4]	Cancer cell growth [5]	CAPRIN1 and G3BP1 protein levels ([6]; HEK-APP695WT cells, 12–72 h)	Levels of other AD-related proteins (BACE1, ADAM10, PSEN1, nicastrin, GGA1, Sorla, neprilysin) ([6]; SAD2.3-Ns, 72 h)	Cell viability (CellTiter-Glo) [7]
COc1cccc(NC(=O)Nc2nc3ccc(C(=O)N4CCOCC4)cc3s2)c1 [compound 0152]	no response	0.03	competitively inhibited	–	–	–	–	–
N#Cc1cccc(NC(=O)Nc2nc3ccc(C(=O)N4CCOCC4)cc3s2)c1 [compound 0043]	–	–	–	thermal shifts for both proteins	no effects	no effect	did not affect levels	without inducing cytotoxicity
